In the supplement of paper PMC10307832:

Columns and labels:
[1] = compound: COc1cc(Nc2ncc(F)c(Nc3ccc4c(n3)NC(=O)C(C)(C)O4)n2)cc(OC)c1OC [R406] + O=C(CCCCCCC(=O)Nc1ccccc1)NO [Vorinostat] (partner 1 µM); test: relative viability (nuclei count vs DMSO), 5 days (fraction); higher = more cells survive
Summary of the method: (§1)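 After 5 days of treatment, lung cancer cells in 1536-well plates were fixed and stained in a single step (final 0.05% Triton X-100, 1% formaldehyde, 1 ug/ml Hoechst) and their nuclei counted on 4× images. Treatment had been applied by pin tool the day after seeding as one drug alone or as a fixed anchor-drug dose with five library-drug doses (not always all listed) in √10 steps. Relative viability is the nuclei count of treated wells divided by that of vehicle wells, and values are medians of duplicate plates.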

[2] = compound: COc1cc(Nc2ncc(F)c(Nc3ccc4c(n3)NC(=O)C(C)(C)O4)n2)cc(OC)c1OC [R406] + NC(=O)Nc1cc(-c2cccc(F)c2)sc1C(=O)N[C@H]1CCCNC1 [AZD7762] (partner 0.2 µM); test: as above
Summary of the method: as §1

Row | Cell Line | relative viability ([1]; first compound 0.08 µM) | relative viability ([1]; first compound 0.253 µM) | relative viability ([1]; first compound 0.8 µM) | relative viability ([1]; first compound 2.53 µM) | relative viability ([1]; first compound 8 µM) | relative viability ([2]; first compound 0.08 µM) | relative viability ([2]; first compound 0.253 µM) | relative viability ([2]; first compound 0.8 µM) | relative viability ([2]; first compound 2.53 µM) | relative viability ([2]; first compound 8 µM)
1 | NCI-H647 | 0.436 | 0.645 | 0.611 | 0.66 | 0.113 | 0.373 | 0.419 | 0.467 | 0.413 | 0.29
2 | A-427 | 0.856 | 0.928 | 0.852 | 0.939 | 0.621 | 0.832 | 0.795 | 0.86 | 0.663 | 0.43
3 | EMC-BAC-2 | 0.405 | 0.785 | 0.53 | 0.411 | 0.145 | 1.05 | 1.26 | 1.17 | 1.04 | 0.391
4 | NCI-H460 | 0.673 | 1.04 | 0.917 | 0.645 | 0.742 | 0.651 | 0.829 | 0.69 | 0.61 | 0.762
5 | LCLC-103H | 0.729 | 0.764 | 0.834 | 0.779 | 0.566 | 0.662 | 0.844 | 0.813 | 0.747 | 0.569
6 | HCC-827 | 0.791 | 0.853 | 0.892 | 0.788 | 0.817 | 0.336 | 0.239 | 0.234 | 0.176 | 0.134
7 | NCI-H1355 | 0.72 | 0.71 | 0.733 | 0.385 | 0.439 | 0.799 | 0.758 | 0.747 | 0.555 | 0.581
8 | NCI-H1734 | 0.747 | 0.918 | 0.909 | 0.366 | 0.309 | 0.58 | 0.582 | 0.679 | 0.228 | 0.313
9 | HARA | 0.66 | 0.606 | 0.515 | 0.489 | 0.515 | 0.272 | 0.469 | 0.257 | 0.306 | 0.305
10 | HCC-15 | 0.919 | 0.921 | 0.867 | 0.842 | 0.81 | 1.35 | 1.33 | 1.38 | 1.19 | 0.751
11 | LCLC-97TM1 | 0.732 | 0.908 | 1.38 | 0.569 | 0.468 | 0.207 | 0.313 | 0.327 | 0.164 | 0.219
12 | SK-LU-1 | 0.84 | 0.822 | 0.764 | 0.555 | 0.155 |  |  |  |  | 
13 | NCI-H1651 | 0.557 | 0.612 | 0.615 | 0.547 | 0.545 | 0.432 | 0.544 | 0.513 | 0.396 | 0.446
14 | NCI-H1793 | 0.632 | 0.967 | 0.928 | 0.128 | 0.182 | 0.471 | 0.368 | 0.415 | 0.283 | 0.413
15 | NCI-H2023 | 0.732 | 0.784 | 0.618 | 0.391 | 0.312 |  |  |  |  | 
16 | LC-2-ad | 0.677 | 0.748 | 0.744 | 0.336 | 0.201 | 0.856 | 0.898 | 0.89 | 0.827 | 0.343
17 | NCI-H1703 |  |  |  |  |  | 0.144 | 0.137 | 0.115 | 0.105 | 0.112
18 | NCI-H1437 | 0.901 | 0.983 | 0.84 | 0.835 | 0.602 | 1.04 | 1.19 | 1.13 | 1.05 | 1.05

Row | Cell Line | relative viability ([1]; first compound 0.08 µM) | relative viability ([1]; first compound 0.253 µM) | relative viability ([1]; first compound 0.8 µM) | relative viability ([1]; first compound 2.53 µM) | relative viability ([1]; first compound 8 µM) | relative viability ([2]; first compound 0.08 µM) | relative viability ([2]; first compound 0.253 µM) | relative viability ([2]; first compound 0.8 µM) | relative viability ([2]; first compound 2.53 µM) | relative viability ([2]; first compound 8 µM)
19 | SW 1573 | 0.57 | 1.18 | 0.947 | 0.658 | 0.305 |  |  |  |  | 
20 | H3255 | 0.767 | 0.816 | 0.996 | 0.72 | 0.638 | 0.923 | 0.983 | 0.823 | 0.774 | 0.747
21 | NCI-H1792 |  |  |  |  |  | 0.75 | 0.615 | 0.908 | 0.283 | 0.378
22 | NCI-H2170 | 0.799 | 0.791 | 0.987 | 0.571 | 0.658 | 0.81 | 0.766 | 0.948 | 0.596 | 0.708
23 | NCI-H1650 | 0.635 | 0.634 | 0.664 | 0.396 | 0.389 |  |  |  |  | 
24 | NCI-H2087 | 0.43 | 0.741 | 0.885 | 0.646 | 0.954 | 1.36 | 1.47 | 1.33 | 1.06 | 1.25
25 | HCC-366 | 0.264 | 0.482 | 0.332 | 0.137 | 0.077 | 0.269 | 0.294 | 0.368 | 0.267 | 0.243
26 | NCI-H838 | 0.694 | 0.795 | 0.769 | 0.458 | 0.194 | 0.915 | 1.02 | 1.04 | 0.853 | 0.741
27 | LU99A | 0.519 | 0.484 | 0.553 | 0.361 | 0.312 | 0.317 | 0.358 | 0.39 | 0.413 | 0.283
28 | NCI-H650 | 0.494 | 0.442 | 0.495 | 0.439 | 0.331 | 0.822 | 1.16 | 1.02 | 0.593 | 0.788
29 | HCC-78 | 0.452 | 0.426 | 0.412 | 0.29 | 0.331 | 0.571 | 0.861 | 0.623 | 0.619 | 0.449
30 | NCI-H1755 | 0.778 | 0.861 | 0.757 | 0.642 | 0.468 | 0.382 | 0.493 | 0.369 | 0.335 | 0.253
31 | NCI-H3122 | 0.884 | 1.1 | 1.03 | 0.923 | 0.928 | 1.06 | 1.04 | 0.969 | 0.804 | 0.924
32 | NCI-H2342 | 0.694 | 0.84 | 0.699 | 0.752 | 0.74 | 0.505 | 0.53 | 0.476 | 0.433 | 0.392
33 | NCI-H358 | 0.766 | 0.726 | 0.722 | 0.314 | 0.273 | 0.502 | 0.472 | 0.509 | 0.272 | 0.217
34 | PC-3 [JPC-3] | 0.811 | 1.01 | 0.861 | 0.546 | 0.381 | 0.817 | 0.819 | 0.923 | 0.684 | 0.381
35 | SK-MES-1 | 1.05 | 1.14 | 1.21 | 0.996 | 0.158 |  |  |  |  | 
36 | NCI-H2347 | 0.586 | 0.651 | 0.767 | 0.383 | 0.397 | 0.785 | 0.81 | 0.776 | 0.422 | 0.529
